Assays:
Experiment in all cases: relative viability (nuclei count vs DMSO), 5 days (fraction); higher = more cells survive
[1] = compound: CC(C)CCN1c2nc(Nc3cc(F)c(O)c(F)c3)ncc2N(C)C(=O)C1C [BI-D1870] + O=C(CCCCCCC(=O)Nc1ccccc1)NO [Vorinostat] (partner 1 µM)
Summary of the method: (§1)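 Lung cancer cell lines were pin-tool dosed in 1536-well plates on the day after seeding, with either a lone drug or a fixed anchor-drug dose plus five library-drug doses (not always all listed) in √10 steps. Nuclei were counted on 4× images after 5 days. Relative viability is the ratio of treated-well to vehicle-well nuclei counts, with each value a median of duplicate plates.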

[2] = compound: O=c1ncccn1[C@@H]1O[C@H](CO)[C@@H](O)[C@H]1O [Zebularine] + Nc1ncn([C@H]2C[C@H](O)[C@@H](CO)O2)c(=O)n1 [Decitabine] (partner 2 µM)
Summary of the method: as §1

[3] = compound: O=c1ncccn1[C@@H]1O[C@H](CO)[C@@H](O)[C@H]1O [Zebularine] + O=C(CCCCCCC(=O)Nc1ccccc1)NO [Vorinostat] (partner 1 µM)
Summary of the method: as §1

[4] = compound: O=c1ncccn1[C@@H]1O[C@H](CO)[C@@H](O)[C@H]1O [Zebularine] + Cc1nc(Nc2ncc(C(=O)Nc3c(C)cccc3Cl)s2)cc(N2CCN(CCO)CC2)n1 [Dasatinib] (partner 0.075 µM)
Summary of the method: as §1

Row | Cell Line | relative viability ([1]; first compound 0.04 µM) | relative viability ([1]; first compound 0.1265 µM) | relative viability ([1]; first compound 1.265 µM) | relative viability ([1]; first compound 4 µM) | relative viability ([2]; first compound 1 µM) | relative viability ([2]; first compound 3.162 µM) | relative viability ([2]; first compound 10 µM) | relative viability ([2]; first compound 31.62 µM) | relative viability ([2]; first compound 100 µM) | relative viability ([3]; first compound 1 µM) | relative viability ([3]; first compound 3.162 µM) | relative viability ([3]; first compound 10 µM) | relative viability ([3]; first compound 31.62 µM) | relative viability ([3]; first compound 100 µM) | relative viability ([1]; first compound 0.4 µM) | relative viability ([4]; first compound 1 µM) | relative viability ([4]; first compound 3.162 µM) | relative viability ([4]; first compound 10 µM) | relative viability ([4]; first compound 31.62 µM) | relative viability ([4]; first compound 100 µM)
1 | NCI-H1648 | 0.345 | 0.333 | 0.626 | 0.697 | 0.456 | 0.478 | 0.368 | 0.487 | 0.438 | 0.554 | 0.494 | 0.479 | 0.262 | 0.48 |  |  |  |  |  | 
2 | SK-MES-1 | 1.16 | 0.905 | 0.949 | 0.691 | 0.442 | 0.397 | 0.321 | 0.286 | 0.261 | 1.28 | 1.18 | 0.914 | 1.09 | 0.351 | 0.933 | 0.386 | 0.423 | 0.356 | 0.299 | 0.166
3 | HCC-366 | 0.502 | 0.331 | 0.316 | 0.1 | 0.412 | 0.336 | 0.274 | 0.389 | 0.108 | 0.488 | 0.372 | 0.26 | 0.343 | 0.184 | 0.294 | 0.617 | 0.667 | 0.526 | 0.721 | 0.218
4 | 201T | 1.01 | 0.91 | 0.914 | 0.932 | 0.872 | 0.883 | 0.76 | 0.894 | 0.844 | 0.944 | 0.921 | 0.955 | 1.05 | 1.02 | 0.922 | 0.635 | 0.586 | 0.508 | 0.6 | 0.548
5 | HCC-827 | 0.771 | 0.846 | 0.988 | 0.765 | 0.42 | 0.353 | 0.259 | 0.259 | 0.346 | 1.04 | 0.811 | 0.77 | 0.478 | 0.361 | 0.818 | 0.3 | 0.292 | 0.249 | 0.322 | 0.238
6 | NCI-H647 | 0.666 | 0.346 | 0.536 | 0.335 | 0.391 | 0.369 | 0.187 | 0.144 | 0.14 | 0.481 | 0.586 | 0.165 | 0.165 | 0.12 | 0.669 | 0.202 | 0.208 | 0.129 | 0.101 | 0.109
7 | NCI-H2023 | 0.795 | 0.507 | 0.643 | 0.457 | 0.243 | 0.22 | 0.166 | 0.199 | 0.182 | 0.946 | 0.561 | 0.509 | 0.518 | 0.216 | 0.571 | 0.636 | 0.572 | 0.423 | 0.392 | 0.213
8 | NCI-H520 | 0.716 | 0.755 | 0.464 | 0.198 | 0.552 | 0.49 | 0.399 | 0.299 | 0.233 | 0.752 | 0.685 | 0.462 | 0.45 | 0.242 | 0.649 | 0.195 | 0.175 | 0.14 | 0.172 | 0.164
9 | RERF-LC-KJ | 0.66 | 0.633 | 0.642 | 0.47 | 0.828 | 0.733 | 0.587 | 0.85 | 0.751 | 0.734 | 0.738 | 0.633 | 0.762 | 0.683 | 0.669 | 0.92 | 0.81 | 0.759 | 0.999 | 0.956
10 | A-427 | 0.917 | 0.843 | 0.807 | 0.501 | 0.693 | 0.534 | 0.524 | 0.455 | 0.302 | 0.96 | 0.855 | 0.703 | 0.666 | 0.361 | 0.817 | 0.841 | 0.664 | 0.434 | 0.535 | 0.2
11 | NCI-H441 | 0.686 | 0.794 | 0.722 | 0.655 | 0.246 | 0.237 | 0.266 | 0.184 | 0.16 | 1.03 | 0.908 | 0.404 | 0.317 | 0.362 | 0.731 | 0.705 | 0.619 | 0.394 | 0.41 | 0.271
12 | NCI-H1792 |  |  |  |  | 0.62 | 0.531 | 0.292 | 0.292 | 0.254 |  |  |  |  |  |  | 0.71 | 0.713 | 0.262 | 0.421 | 0.414
13 | SK-LU-1 | 0.823 | 0.615 | 0.625 | 0.35 | 0.583 | 0.652 | 0.478 | 0.675 | 0.495 | 0.891 | 0.725 | 0.557 | 0.555 | 0.487 | 0.71 | 0.168 | 0.184 | 0.162 | 0.172 | 0.144
14 | PC-3 [JPC-3] | 0.817 | 0.795 | 0.625 | 0.394 | 0.781 | 0.817 | 0.755 | 0.842 | 0.659 | 1.01 | 0.874 | 0.785 | 0.737 | 0.658 | 0.81 | 1.05 | 1.05 | 0.61 | 0.979 | 0.79
15 | EMC-BAC-2 | 0.495 | 0.519 | 0.461 | 0.413 | 1.03 | 1 | 0.772 | 1.03 | 1.01 | 0.521 | 0.481 | 0.495 | 0.42 | 0.481 | 0.397 | 0.349 | 0.367 | 0.268 | 0.318 | 0.311
16 | LK-2 | 0.351 | 0.391 | 0.277 | 0.279 | 0.34 | 0.338 | 0.274 | 0.288 | 0.194 | 0.277 | 0.315 | 0.209 | 0.177 | 0.28 | 0.468 | 0.242 | 0.336 | 0.287 | 0.256 | 0.228
17 | NCI-H2126 | 0.802 | 0.718 | 0.735 | 0.578 | 0.582 | 0.629 | 0.585 | 0.608 | 0.396 | 0.664 | 0.524 | 0.853 | 0.698 | 0.474 | 0.719 | 0.813 | 0.538 | 0.612 | 0.569 | 0.488

Reference: the supplement of paper PMC10307832
